How the values were obtained:
[1] = system: Lipoxin A4; assay: Lipoxin A4 ELISA in macrophage conditioned media, CFE and serum of diabetic rats; format: in vivo, rat; conditions: STZ-diabetic rats, 30 mg/kg oral once per day for 3 weeks
Procedure: (§1) Adult rats were made diabetic by I.V. injection of streptozotocin; non-diabetic rats served as controls (n=6 rats per group; all groups). Half of the diabetics (blood glucose >500 mg/dl) were orally administered CMC2.24 (30 mg/kg) once per day for 3 weeks; untreated diabetics (D) and N rats received vehicle alone. PEs were collected at time=0 (ie, before thioglycollate injection into peritoneal cavity). Resident macrophages were isolated from PEs, then incubated in cell culture for 13 hours (370 C; 95% air/5% CO2 atmosphere). Lipoxin A4 levels were measured by ELISA (a) in cell culture serum-free conditioned media; (b) in the cell-free exudates (CFEs); and (c) in serum.

[2] = system: Lipoxin B4; assay: Lipoxin B4 ELISA in macrophage conditioned media, CFE and serum of diabetic rats; format: in vivo, rat; conditions: STZ-diabetic rats, 30 mg/kg oral once per day for 3 weeks
Procedure: as §1, with “18” for “13”, “B4” for “A4”

[3] = system: IL-1β relative to lipoxin A4; assay: Experiment A: IL-1β and lipoxin A4 secreted by macrophages from treated diabetic rats; format: in vivo, rat; conditions: 30 mg/kg oral once per day for 21 days, compared to untreated diabetics
Procedure: In an in vivo experiment, three groups of adult male rats were established including non-diabetic controls (NDC group; n=6 rats/group); rats that were made diabetic and severely hyperglycemic by STZ injection (D+vehicle group; n=6 rats/group), and a 3rd group of rats (n=6 rats/group) in which the diabetics were orally administered CMC2.24 (30 mg/kg body weight) once per day for 21 days. At the end of the protocol, the rats were sacrificed and the peritoneal cells were collected by washing with cold 15 ml phosphate buffered saline/EDTA, The macrophages were harvested from the peritoneal wash from each rat, after 2 hours of adherence to culture plates (sterile conditions), the cells were counted and then incubated for 18 h at 37° C. in an atmosphere of 95% air/5% CO2. The conditioned media was then collected and analyzed for the resolvin, lipoxin A4, and for two inflammatory cytokines, IL-1β and IL-6. The data is expressed as a ratio of […] (pg/ml) relative to resolvin (ng/ml) secreted by the macrophages from the three experimental groups (FIG. 45A).

[4] = system: IL-1β relative to lipoxin A4; assay: Experiment B: IL-1β/lipoxin A4 ratio in LPS-exposed macrophages in culture; format: cell-based, rat; conditions: LPS (100 ng/ml)-exposed macrophages, CMC2.24 5 μM
Procedure: (§2) In the second experiment, macrophages (chronic inflammatory cells), were collected and counted from the peritoneal washes of the six non-diabetic control rats. These cells were then pooled and incubated under different in vitro conditions including: group 1, control Møs; group 2, Møs incubated with lipopolysaccharide (LPS)/endotoxin at 100 ng/ml, final concentration, added to the culture media; group 3, Møs exposed to LPS but treated with CMC2.24 at a final concentration of 2 μM; and group 4, like group 3 except that CMC2.24 was increased to 5 μM (note that in this cell culture experiment, sufficient IL-6 was secreted by the LPS-exposed Møs unlike Experiment A, above).

[5] = system: IL-6 relative to lipoxin A4; assay: Experiment B: IL-6/lipoxin A4 ratio in LPS-exposed macrophages in culture; format: cell-based, rat; conditions: LPS (100 ng/ml)-exposed macrophages, CMC2.24 5 μM
Procedure: as §2

[6] = system: elastase/LPS-treated COPD mice; assay: Morphometry: mean linear intercept (chord length) in COPD mice; format: in vivo, mouse; conditions: oral gavage for seven days, control 33, COPD 54
Procedure: Elastase and LPS exposure: A total of 180 male and 180 female WT mice (8-12 weeks old) were used for all experiments. Experiments were performed in triplicate for each group of age- and gender-matched mice. Animals were exposed by the intranasal route to 10 μl saline containing 1.2 units of porcine pancreatic elastase (Elastin Products, Owensville, Mo.) on Tuesday and 10 μl saline containing 7 μg (−70 endotoxin units) of LPS from Escherichia coli O26:B6 (Sigma-Aldrich, St. Louis, Mo.) on Friday of each week for four consecutive weeks.
3 mg of CMC2.24 powder were dissolved in 1 mL suspension of 2% Carboxymethyl cellulose vehicle for the daily oral administration of CMC2.24 (40 mg/kg). Vehicle alone was administered to the control group. Both CMC2.24 and vehicle control were administered once daily over the 7-day protocol by gavage (Zhang, Y. et al. 2010; Elburki, M. S. et al. 2014).
Morphometry—Air Space Enlargement: In an effort to quantitate alveolar air space enlargement, the Mean Linear Intercept (MLI) was implemented. […] Afterwards, seven equally spaced lines were then drawn within the guard zone, and directly measured by manual use of a ruler. Starting from the left, the line was scanned for any intersections with the alveolar walls and measured until the following intersection with the alveolar surface on the right. […]

[7] = system: Human lung epithelial cell line (A549); assay: Cell viability by CCK-8 assay in A549 cells; format: cell-based; conditions: 1 to 80 μM, 24 h
Procedure: (§3) Human lung epithelial cell line (A549) and primary alveolar macrophage cell culture: Human lung epithelial cell line (A549, ATCC #CCL-185) was purchased from ATCC (Manassas, Va.); and primary alveolar macrophages were prepared from healthy adult animals (swine). A549 cells and primary alveolar macrophages were cultured in RPMI Media 1640 medium supplemented with 10% (v/v) FBS, 1% (v/v) L-glutamine (200 mM) and 1% (v/v) Antibiotic-Antimycotic antibiotics at 37° C. in a humidified 5% CO2 incubator.
(§4) CMC 2.24 treatment and PM2.5 exposure: The cells were subcultured when cells were grown to about 70% confluency. […]
(§5) Analysis of cell viability by CCK-8 assay: In order to study the effect of CMC2.24 in A549 cells and primary alveolar macrophages after PM2.5 exposure, cell viability was determined using Cell Counting Kit (CCK)-8 kit (Sigma-Aldrich, MO, USA) according to the manufacturer's instructions, A549 cells (0.5×10^4/well) and primary macrophages (1×10^4/well) were cultured in 96-well plates for 24 h and 6 h, respectively; the cells were then exposed to various concentrations of CMC 2.24 (i.e. 0, 1, 5, 10, 20, 30, 40, and 80 μM of CMC 2.24) in the presence or absence of 100 μg/ml PM2.5 in the media for 24 h. […] Then optical density value was measured at 450 nm using a microplate reader (Multiskan Ascent, Thermo Lab systems). […]

[8] = system: primary alveolar macrophages; assay: Cell viability by CCK-8 assay in primary alveolar macrophages; format: cell-based; conditions: 1 to 80 μM, 24 h
Procedure: as §3, §4, §5

[9] = system: S. aureus-infected hTG SP-B mice; assay: Mortality in S. aureus pneumonia in hTG SP-B mice; format: in vivo, mouse; conditions: 50 mg/kg daily
Procedure: S. aureus-induced pneumonia model: Pilot experiments were performed to establish the S. aureus Xen36 pneumonia model using different doses of bacteria to infect mouse lung. […] Therefore, direct intratracheal inoculation of bioluminescent S. aureus Xen36 at a dose of 5×10^8/50 μl was used to infect mice in all subsequent experiment (Farnsworth, C. W. et al. 2015; Schriever, M. P. et al. 2011). In brief, hTG SP-B mice between 8 and 12 weeks old were anesthetized using intraperitoneal ketamine/xylazine (90 mg/kg ketamine, 10 mg/kg xylazine) injection. A 0.3-cm mid-line neck incision was made to expose the trachea. In the sham group, 50 μl of sterile vehicle was injected into the trachea by the same method. After infection, bio-luminescence signal was observed and quantified by an in vivo imaging system. (Xenogen-200 series, Caliper Life Sciences, Hopkinton, Mass.). Buprenorphine (0.05 mg/kg body weight) was injected for postoperative analgesia every 8-12 hrs. Mice were returned to their cages in a temperature-controlled room. (22. ° C.) with 12-h light and dark cycles and monitored every 4 h. Mice were anesthetized with isoflurane (2%) at several time points after infection (0 h, 12 h, 24 h, 28 h, 32 h, and 48 h) (Pribaz, J. R. et al, 2012; Guo, Y, et al, 2013). At 48 h after S. aureus infection, nice were sacrificed under anesthesia. […]

[10] = Solubility; format: physicochemical
[11] = rats with pathologically excessive MMPs, doses as high as 500 mg/kg of body weight; cited from earlier work
[12] = cited from earlier work
[13] = cell and tissue culture, in vivo studies; cited from earlier work

O=C(/C=C/c1ccc(O)cc1)C(C(=O)/C=C/c1ccc(O)cc1)C(=O)Nc1ccccc1 [CMC2.24]
increase of Lipoxin A4 in rat serum [1]: 15.5% | increase of Lipoxin A4 in resident peritoneal cell-free exudates [1]: 80.6% | increase of Lipoxin A4 secretion by resident peritoneal macrophages ([1]; vs untreated diabetics): 12.7% | increase of Lipoxin B4 secretion by resident peritoneal macrophages [2]: 12.7% | reduction of ratio IL-1β relative to lipoxin A4 secreted by macrophages [3]: 85.3% | reduction of IL-1β/lipoxin A4 ratio [4]: 93.8% | reduction of IL-6/lipoxin A4 ratio [5]: 86% | average chord length (mean linear intercept) [6]: 35 µm | cell viability (CCK-8), compound alone [7]: did not influence cell viability | cell viability (CCK-8), compound alone [8]: did not influence cell viability | mortality rate ([9]; infected SP-B-C mice, control 76%, p<0.05): 50% | mortality rate ([9]; infected SP-B-T mice, control 33%): 32% | solubility relative to CMC2.5 [10]: improved solubility | toxicity on oral gavage [11]: no evidence of toxicity | solubility relative to curcumin [12]: improved solubility | toxicity compared to the parent compound [13]: even less toxicity

From US20210322346A1, “CHEMICALLY MODIFIED CURCUMINS FOR USE IN THE PRODUCTION OF LIPOXINS” (The Research Foundation for The State University of New York, priority 2015, published 2021)
